Measured values reported in patent US7220824B1, “Integrin-mediated drug targeting” (Bayer Aktiengesellschaft, priority 2000, dated 2007).
Like-named read-outs stand apart in the source and are kept apart here.

How the values were obtained:
[1] = target: T1, αvβ3 receptor (αvβ3 from human A375 cells) (Homo sapiens, UniProt P05106+P06756); experiment: αvβ3 binding test (echistatin displacement, WGA SPA beads)
T1 construct: αvβ3 from human A375 cells was purified analogously to a procedure which was described by Wong et al; endogenous in cells; host or cells: human A375 cells; the receptor was purified from the cells and used detergent-solubilised (n-octyl-glucopyranoside)
Description: αvβ3 from human A375 cells was purified analogously to a procedure which was described by Wong et al. (Molecular Pharmacology, 50, 529–537 (1996)). In each case, 10 μl of αvβ3 (5 ng) in TBS pH 7.6, 2 mM CaCl2, 1 mM MgCl2, 1% n-octyl-glucopyranoside (Sigma); 10 μl of test substance in TBS pH 7.6, 0.1% DMSO and 45 μl of TBS pH 7.6, 2 mM CaCl2, 1 mM MgCl2, 1 mM MnCl2 were incubated at room temperature for 1 h. In each case, 25 μl of WGA SPA beads (Amersham, 4 mg/ml) and 10 μl of echistatin ([…], Amersham, chloramine-T labelled) were then added. After 16 hours at room temperature, the samples were measured in a scintillation measuring apparatus (Wallac 1450).

[2] = tested on: hemopoietic stem cells (bone marrow cells); experiment: CSF-induced proliferation of hemopoietic stem cells; assay type: cell-based, mice; conditions: Bone marrow cell, 168 h
Description: Bone marrow cells are flushed out of the femur of mice. 10^5 cells are incubated in McCoy 5A medium (0.3% agar) together with recombinant murine GM-CSF (Genzyme; parent cell colony formation) and the substances (10^−4 to 100 μg/ml) at 37° C. and 7% CO2. 7 days later, the colonies (<50 cells) and clusters (17–50 cells) are counted.

[3] = tested on: HT 29; experiment: Growth inhibition test (MTT), cytotoxic action on tumour cell lines; assay type: cell-based; conditions: Homo sapiens, HT-29, 144 h, read-out: IC50 values of the cytotoxic action on tumour cell lines, HT 29
Description: (§1) The human large intestine cell lines SW 480 and HT29 (ATCC No. CCL 228 and HTB38), the human breast cell lines MDA-MB 231, MCF-7 and BT20 (ATCC No. HTB-, 26, 22 and 23) and the mouse melanoma cell line B16F 10 (CRL 6475) were grown to confluence in Roux dishes in RPMI 1640 medium with addition of 10% FCS. They were then trypsinized and taken up in RPMI plus 10% FCS to a cell count of 50,000 cells or, for B16F10, 20,000 cells per ml. 100 μl of cell suspension/well were added to a 96 microwell plate and incubated at 37° C. for 1 day in a CO2 incubator. A further 100 μl of RPMI medium and 1 μl of DMSO were then added with the test substances. The growth was checked after day 6. For this, 25 μl of MTT solution (3-(4,5-dimethylthiazol-2-yl)-2,5-diphenyltetrazolium bromide) was added to each well at a starting concentration of 5 mg/ml of H2O. The plate was incubated at 37° C. for 5 hours in a CO2 incubator. The medium was then aspirated and 100 μl of i-propanol/well were added. After shaking with 100 μl of H2O for 30 min, the extinction was measured at 595-nm using a Multiplate Reader (BIO-RAD 3550-UV).
(§2) The cytostatic action is indicated in Table 2 as an IC50 value, in each case for the individual cell lines.

[4] = tested on: SW480; experiment: as above; assay type: cell-based; conditions: Homo sapiens, SW480, 144 h, read-out: IC50 values of the cytotoxic action on tumour cell lines, SW480
Description: as §1, §2

[5] = tested on: B16F10; experiment: as above; assay type: cell-based; conditions: Mus musculus, B16-F10, 144 h, read-out: IC50 values of the cytotoxic action on tumour cell lines, B16F10
Description: as §1, §2

[6] = tested on: BT20; experiment: as above; assay type: cell-based; conditions: Homo sapiens, BT-20, 144 h, read-out: IC50 values of the cytotoxic action on tumour cell lines, BT20
Description: as §1, §2

[7] = tested on: MDA-MB 231; experiment: as above; assay type: cell-based; conditions: Homo sapiens, MDA-MB-231, 144 h, read-out: IC50 values of the cytotoxic action on tumour cell lines, MDA-MB 231
Description: as §1, §2

[8] = tested on: MCF7; experiment: as above; assay type: cell-based; conditions: Homo sapiens, MCF7, 144 h, read-out: IC50 values of the cytotoxic action on tumour cell lines, MCF7
Description: as §1, §2

[9] = αvβ3 purified from human A375 cells, labelled echistatin, read-out: IC50 values of the binding to the αvβ3 receptor
[10] = Mus musculus, read-out: IC50, CSF-induced proliferation of hemopoietic stem cells, mouse bone marrow cells, recombinant murine GM-CSF, 7 days, colony count

T1 sequence (P06756 31-889 limits assumed): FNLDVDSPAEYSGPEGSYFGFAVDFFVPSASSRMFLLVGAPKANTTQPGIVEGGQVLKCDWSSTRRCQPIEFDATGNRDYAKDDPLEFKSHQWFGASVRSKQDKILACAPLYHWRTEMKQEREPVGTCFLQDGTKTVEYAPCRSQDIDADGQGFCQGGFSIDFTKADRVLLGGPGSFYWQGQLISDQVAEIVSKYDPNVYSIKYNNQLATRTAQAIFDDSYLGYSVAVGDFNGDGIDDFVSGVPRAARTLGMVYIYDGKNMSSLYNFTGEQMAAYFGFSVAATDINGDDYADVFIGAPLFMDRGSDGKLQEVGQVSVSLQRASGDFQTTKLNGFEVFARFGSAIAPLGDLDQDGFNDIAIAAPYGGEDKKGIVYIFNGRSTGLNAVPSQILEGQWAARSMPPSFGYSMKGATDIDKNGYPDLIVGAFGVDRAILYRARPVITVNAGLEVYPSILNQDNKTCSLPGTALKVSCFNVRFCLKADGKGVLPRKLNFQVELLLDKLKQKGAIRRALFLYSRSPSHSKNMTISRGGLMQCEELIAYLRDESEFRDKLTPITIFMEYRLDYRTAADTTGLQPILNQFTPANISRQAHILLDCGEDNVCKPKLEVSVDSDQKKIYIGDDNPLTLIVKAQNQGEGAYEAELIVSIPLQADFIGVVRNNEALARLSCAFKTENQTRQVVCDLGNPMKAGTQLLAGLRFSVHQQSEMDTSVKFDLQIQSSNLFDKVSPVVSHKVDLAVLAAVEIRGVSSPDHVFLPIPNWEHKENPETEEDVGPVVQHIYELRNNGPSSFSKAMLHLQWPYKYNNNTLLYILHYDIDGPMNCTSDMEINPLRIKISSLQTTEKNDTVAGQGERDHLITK
T1 sequence (P06756 891-1048 partner limits assumed): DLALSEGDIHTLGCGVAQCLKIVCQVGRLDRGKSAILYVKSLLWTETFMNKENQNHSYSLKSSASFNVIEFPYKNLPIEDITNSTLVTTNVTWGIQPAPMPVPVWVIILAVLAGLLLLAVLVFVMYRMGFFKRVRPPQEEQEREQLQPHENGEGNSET
T1 sequence (P05106 27-788): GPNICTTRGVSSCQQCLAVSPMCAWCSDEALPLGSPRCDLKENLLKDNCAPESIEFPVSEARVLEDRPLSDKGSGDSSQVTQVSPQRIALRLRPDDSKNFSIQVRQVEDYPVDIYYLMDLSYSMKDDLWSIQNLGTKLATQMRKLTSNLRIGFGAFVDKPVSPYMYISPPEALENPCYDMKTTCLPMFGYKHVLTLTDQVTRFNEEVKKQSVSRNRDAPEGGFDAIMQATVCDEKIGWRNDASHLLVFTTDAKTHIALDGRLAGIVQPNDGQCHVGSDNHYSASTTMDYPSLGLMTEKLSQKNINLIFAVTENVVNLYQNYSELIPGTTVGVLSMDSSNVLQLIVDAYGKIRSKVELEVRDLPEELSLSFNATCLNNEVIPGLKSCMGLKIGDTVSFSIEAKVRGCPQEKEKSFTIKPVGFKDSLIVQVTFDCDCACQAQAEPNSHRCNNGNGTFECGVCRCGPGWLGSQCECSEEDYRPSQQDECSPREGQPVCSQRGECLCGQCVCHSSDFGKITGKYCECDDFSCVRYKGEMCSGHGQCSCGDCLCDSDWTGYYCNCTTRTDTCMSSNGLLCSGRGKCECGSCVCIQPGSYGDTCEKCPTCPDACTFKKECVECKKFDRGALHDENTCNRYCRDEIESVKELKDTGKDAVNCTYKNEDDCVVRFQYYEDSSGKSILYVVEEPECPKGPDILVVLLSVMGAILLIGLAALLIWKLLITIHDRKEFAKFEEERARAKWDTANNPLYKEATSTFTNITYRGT

| Compound | IC50 [1, 9] [µM] | IC50 [2, 10] [ng/mL] | IC50 [1] [µM] | IC50 [3] [µM] | IC50 [4] [µM] | IC50 [5] [µM] | IC50 [6] [µM] | IC50 [7] [µM] | IC50 [8] [µM] | IC50 ([2]; mouse bone marrow cells, recombinant murine GM-CSF, 7 days, colony count, read-out: IC50, CSF-induced proliferation of hemopoietic stem cells) [ng/mL] |
| --- | --- | --- | --- | --- | --- | --- | --- | --- | --- | --- |
| CCCNC(=O)Nc1cccc(S(=O)(=O)Nc2cccc(C(CC(=O)O)NC(=O)CCCC(=O)NCC(=O)N[C@@H](CC(C)C)C(=O)N[C@H](C(=O)O[C@]3(CC)C(=O)OCc4c3cc3n(c4=O)Cc4cc5ccccc5nc4-3)C(C)C)c2)c1 (stereo partly drawn) [Example 3.22] | 0.531 | 6 |  |  |  |  |  |  |  |  |
| CCCNC(=O)Nc1cccc(S(=O)(=O)Nc2cccc(C(CC(=O)O)NC(=O)CCCC(=O)NCC(=O)N[C@@H](CC(C)C)C(=O)O[C@]3(CC)C(=O)OCc4c3cc3n(c4=O)Cc4cc5ccccc5nc4-3)c2)c1 (stereo partly drawn) [Example 3.20] | 0.265 | 100 |  |  |  |  |  |  |  |  |
| CC[C@@]1(OC(=O)CCC(=O)NC(CC(=O)O)c2cccc(NS(=O)(=O)c3cccc(NC(=N)N)c3)c2)C(=O)OCc2c1cc1n(c2=O)Cc2cc3ccccc3nc2-1 (stereo partly drawn) [Example 3.18] |  |  | 0.079 | 0.18 | 0.3 | 1 | 0.9 | 0.5 | 0.6 |  |
| CCCNC(=O)Nc1cccc(S(=O)(=O)Nc2cccc(C(CC(=O)O)NC(=O)CCCC(=O)N3CCC[C@H]3C(=O)N[C@@H](CC(C)C)C(=O)NCC(=O)N[C@@H](CC(C)C)C(=O)O[C@]3(CC)C(=O)OCc4c3cc3n(c4=O)Cc4cc5ccccc5nc4-3)c2)c1 (stereo partly drawn) [Example 3.23] |  | 6 | 0.355 |  |  |  |  |  |  |  |
| CC[C@@]1(OC(=O)[C@@H](NC(=O)CC[C@H](NC(=O)CC(NC(=O)CNC(=O)c2cccc(NC(=N)N)c2)c2ccccc2)C(=O)O)C(C)C)C(=O)OCc2c1cc1n(c2=O)Cc2cc3ccccc3nc2-1 (stereo partly drawn) [Example 1.2] | 0.679 |  |  | 0.5 | 0.6 | 4 | 0.1 | 0.02 | 0.06 |  |
| CCCNC(=O)Nc1cccc(-c2ccc(CC(NC(=S)Nc3cccc4nc5c(cc34)Cn3c-5cc4c(c3=O)COC(=O)[C@]4(O)CC)C(=O)O)cc2)c1 (stereo partly drawn) [Example 3.15] | 0.061 |  |  | 0.2 | 0.2 | 6 | 2 | 0.2 | 0.3 |  |
| CC[C@@]1(O)C(=O)OCc2c1cc1n(c2=O)Cc2cc3ccccc3nc2-1 [Camptothecin, 20(S)-Camptothecin, reference compound] |  |  |  |  |  |  |  |  |  | 0.3 |
| CC[C@@]1(OC(=O)[C@@H](NC(=O)C(Cc2c[nH]cn2)NC(=S)Nc2ccc(CC(NS(=O)(=O)c3ccc(-c4cccc(NC(=O)Nc5nc6ccccc6[nH]5)c4)cc3)C(=O)O)cc2)C(C)C)C(=O)OCc2c1cc1n(c2=O)Cc2cc3ccccc3nc2-1 (stereo partly drawn) [Example 3.11] |  |  | 0.097 | 0.3 | 0.6 | 0.6 | 0.5 | 0.4 | 0.25 |  |
| CCCNC(=O)Nc1cccc(-c2ccc(CC(NS(=O)(=O)c3cccc(NC(=S)N[C@@H](Cc4c[nH]cn4)C(=O)N[C@H](C(=O)O[C@]4(CC)C(=O)OCc5c4cc4n(c5=O)Cc5cc6ccccc6nc5-4)C(C)C)c3)C(=O)O)cc2)c1 (stereo partly drawn) [Example 3.10] | 0.154 |  |  | 0.35 | 0.3 | 0.8 | 0.4 | 0.2 | 0.2 |  |
| CC[C@@]1(OC(=O)[C@@H](NC(=O)[C@H](Cc2c[nH]cn2)NC(=S)Nc2ccc(S(=O)(=O)NC(CC(=O)O)c3cccc(NS(=O)(=O)c4cccc(NC(=N)N)c4)c3)cc2)C(C)C)C(=O)OCc2c1cc1n(c2=O)Cc2cc3ccccc3nc2-1 (stereo partly drawn) [Example 3.2] |  |  | 0.045 | 0.2 | 0.4 | 1 | 0.2 | 0.2 | 0.2 |  |
| CC[C@@]1(OC(=O)[C@@H](NC(=O)[C@H](CCCCNC(=O)OCC2c3ccccc3-c3ccccc32)NC(=O)Nc2cccc(-c3ccc(S(=O)(=O)NC(CC(=O)O)c4ccccc4)cc3)c2)C(C)C)C(=O)OCc2c1cc1n(c2=O)Cc2cc3ccccc3nc2-1 (stereo partly drawn) [Example 2.14] |  |  | 0.084 | 0.3 | 0.3 | 0.025 | 0.2 | 0.3 | 0.15 |  |
| CC[C@@]1(OC(=O)C(NC(=O)C(CCCCN)NC(=S)Nc2cccc(-c3ccc(C[C@H](NS(=O)(=O)CC45CCC(CC4=O)C5(C)C)C(=O)O)cc3)c2)C(C)C)C(=O)OCc2c1cc1n(c2=O)Cc2cc3ccccc3nc2-1 (stereo partly drawn) [Example 2.5] | 0.19 |  |  | 0.3 | 0.2 | 0.4 | 0.4 | 0.3 | 0.3 |  |
| CCCNC(=O)Nc1cccc(S(=O)(=O)Nc2cccc(C(CC(=O)O)NC(=S)Nc3cccc4nc5c(cc34)Cn3c-5cc4c(c3=O)COC(=O)[C@]4(O)CC)c2)c1 (stereo partly drawn) [Example 3.16] | 0.051 |  |  | 0.1 | 0.5 | 1 | 0.7 | 1 | 0.3 |  |
| CC[C@@]1(OC(=O)[C@@H](NC(=O)[C@H](CCCCN)NC(=S)Nc2cccc(C(=O)NCC(=O)NC(CC(=O)O)c3ccccc3)c2)C(C)C)C(=O)OCc2c1cc1n(c2=O)Cc2cc3ccccc3nc2-1 (stereo partly drawn) [Example 2.1] | 1.45 |  |  | 0.09 | 0.15 | 0.4 | 0.1 | 0.06 | 0.07 |  |
| CCCNC(=O)Nc1cccc(-c2ccc(CC(NC(=O)N[C@H](C(=O)O[C@]3(CC)C(=O)OCc4c3cc3n(c4=O)Cc4cc5ccccc5nc4-3)C(C)C)C(=O)O)cc2)c1 (stereo partly drawn) [Example 3.14] | 0.021 |  |  | 0.1 | 0.15 | 0.2 | 0.1 | 0.15 | 0.08 |  |
| CC[C@@]1(OC(=O)[C@@H](NC(=O)[C@H](CCCCNC(=O)OCC2c3ccccc3-c3ccccc32)NC(=O)Nc2cccc(-c3cccc(S(=O)(=O)NC(CC(=O)O)c4ccccc4)c3)c2)C(C)C)C(=O)OCc2c1cc1n(c2=O)Cc2cc3ccccc3nc2-1 (stereo partly drawn) [Example 2.9] |  |  | 0.236 | 0.7 | 1 | 0.3 | 1.5 | 0.7 | 0.3 |  |
| CC[C@@]1(OC(=O)C(NC(=O)C(Cc2cnc[nH]2)NC(=S)Nc2cccc(-c3ccc(C[C@H](NS(=O)(=O)CC45CCC(CC4=O)C5(C)C)C(=O)O)cc3)c2)C(C)C)C(=O)OCc2c1cc1n(c2=O)Cc2cc3ccccc3nc2-1 (stereo partly drawn) [Example 2.4] | 0.11 |  |  | 0.3 | 0.4 | 0.5 | 1.5 | 0.4 | 0.8 |  |
| CC[C@@]1(OC(=O)[C@@H](NC(=O)[C@H](Cc2c[nH]cn2)NC(=S)Nc2cccc(S(=O)(=O)NC(CC(=O)O)c3cccc(NS(=O)(=O)c4cccc(NC(=N)N)c4)c3)c2)C(C)C)C(=O)OCc2c1cc1n(c2=O)Cc2cc3ccccc3nc2-1 (stereo partly drawn) [Example 3.1] |  |  | 0.147 | 0.4 | 1 | 1 | 1 | 0.5 | 0.8 |  |
